Reference: PubChem BioAssay AID1963846 (Molecular Pharmacology Branch, DTP, NCI, 2024)

Test system: 454973-116-R2-J3-PDC complex spheroid viability
Experiment: Anticancer human tumor 454973-116-R2-J3-PDC patient-derived pancreatic carcinoma cell line growth inhibition [POLQ]
Settings: for IC50: curve of first compound; for viability, T/C: stronger effect = lower value; active = viability on the fitted dose curve at most 10% of control; inactive = the rest
How it was run: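 Complex spheroid viability model combining PDC tumour cells with endothelial (HUVEC) and MSC stromal cells. Novobiocin, ART-558 or RP6685 were tested singly and in combination with standard and investigational anticancer drugs. Each was titrated in half-log steps from near clinical Cmax, or from 10 microM where Cmax was unknown.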

[1] = second compound 0.0316 µM, first compound 0.0316 µM
[2] = second compound 0.0316 µM, first compound 0.1 µM
[3] = second compound 0.0316 µM, first compound 0.316 µM
[4] = second compound 0.0316 µM, first compound 1 µM
[5] = second compound 0.0316 µM, first compound 3.16 µM
[6] = second compound 0.0316 µM, first compound 10 µM
[7] = second compound 0.1 µM, first compound 0.0316 µM
[8] = second compound 0.1 µM, first compound 0.1 µM
[9] = second compound 0.1 µM, first compound 0.316 µM
[10] = second compound 0.1 µM, first compound 1 µM
[11] = second compound 0.1 µM, first compound 3.16 µM
[12] = second compound 0.1 µM, first compound 10 µM
[13] = second compound 0.316 µM, first compound 0.0316 µM
[14] = second compound 0.316 µM, first compound 0.1 µM
[15] = second compound 0.316 µM, first compound 0.316 µM
[16] = second compound 0.316 µM, first compound 1 µM
[17] = second compound 0.316 µM, first compound 3.16 µM
[18] = second compound 0.316 µM, first compound 10 µM
[19] = second compound 1 µM, first compound 0.0316 µM
[20] = second compound 1 µM, first compound 0.1 µM
[21] = second compound 1 µM, first compound 0.316 µM
[22] = second compound 1 µM, first compound 1 µM
[23] = second compound 1 µM, first compound 3.16 µM
[24] = second compound 1 µM, first compound 10 µM
[25] = second compound 3.16 µM, first compound 0.0316 µM
[26] = second compound 3.16 µM, first compound 0.1 µM
[27] = second compound 3.16 µM, first compound 0.316 µM
[28] = second compound 3.16 µM, first compound 1 µM
[29] = second compound 3.16 µM, first compound 3.16 µM
[30] = second compound 3.16 µM, first compound 10 µM
[31] = second compound 10 µM, first compound 0.0316 µM
[32] = second compound 10 µM, first compound 0.1 µM
[33] = second compound 10 µM, first compound 0.316 µM
[34] = second compound 10 µM, first compound 1 µM
[35] = second compound 10 µM, first compound 3.16 µM
[36] = second compound 10 µM, first compound 10 µM
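Also: spheroids exposed to drugs for seven days before measurement.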
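For viability, T/C in this document: percent viability relative to DMSO vehicle control wells taken as 100%.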

CNCc1ccc(-c2[nH]c3cc(F)cc4c3c2CCNC4=O)cc1 + Nc1ccc(C#CCN(C(=O)Cc2ncc(C(F)(F)F)cc2C(F)(F)F)c2ccc(F)cc2)nn1
> 10000 nM: IC50 (second compound 0.0316 µM) | IC50 (second compound 0.1 µM) | IC50 (second compound 0.316 µM) | IC50 (second compound 1 µM) | IC50 (second compound 3.16 µM) | IC50 (second compound 10 µM)
inactive: viability, T/C [1] 114% | viability, T/C [2] 101% | viability, T/C [3] 109% | viability, T/C [4] 94.5% | viability, T/C [5] 104% | viability, T/C [6] 91.9% | viability, T/C [7] 103% | viability, T/C [8] 96.2% | viability, T/C [9] 95.8% | viability, T/C [10] 90.3% | viability, T/C [11] 98.2% | viability, T/C [12] 95.4% | viability, T/C [13] 105% | viability, T/C [14] 100% | viability, T/C [15] 105% | viability, T/C [16] 95.6% | viability, T/C [17] 101% | viability, T/C [18] 95.9% | viability, T/C [19] 110% | viability, T/C [20] 106% | viability, T/C [21] 106% | viability, T/C [22] 108% | viability, T/C [23] 110% | viability, T/C [24] 91% | viability, T/C [25] 113% | viability, T/C [26] 115% | viability, T/C [27] 108% | viability, T/C [28] 98.7% | viability, T/C [29] 121% | viability, T/C [30] 90.6% | viability, T/C [31] 116% | viability, T/C [32] 102% | viability, T/C [33] 112% | viability, T/C [34] 117% | viability, T/C [35] 119% | viability, T/C [36] 85%

C=CCn1c(=O)c2cnc(Nc3ccc(N4CCN(C)CC4)cc3)nc2n1-c1cccc(C(C)(C)O)n1 + COC1C(OC(N)=O)C(O)C(Oc2ccc3c(O)c(NC(=O)c4ccc(O)c(CC=C(C)C)c4)c(=O)oc3c2C)OC1(C)C
527 nM: IC50 (second compound 0.1 µM)
inactive: viability, T/C (second compound 0.0316 µM, first compound 0.00316 µM) 107% | viability, T/C (second compound 0.0316 µM, first compound 0.01 µM) 98.3% | viability, T/C [1] 102% | viability, T/C [2] 95.5% | viability, T/C [3] 81.2% | viability, T/C [4] 16.6% | viability, T/C (second compound 0.1 µM, first compound 0.00316 µM) 99.7% | viability, T/C (second compound 0.1 µM, first compound 0.01 µM) 104% | viability, T/C [7] 102% | viability, T/C [8] 103% | viability, T/C [9] 76.1% | viability, T/C [10] 17.3% | viability, T/C (second compound 0.316 µM, first compound 0.00316 µM) 102% | viability, T/C (second compound 0.316 µM, first compound 0.01 µM) 104% | viability, T/C [13] 104% | viability, T/C [14] 103% | viability, T/C [15] 74.7% | viability, T/C [16] 20.5% | viability, T/C (second compound 1 µM, first compound 0.00316 µM) 112% | viability, T/C (second compound 1 µM, first compound 0.01 µM) 101% | viability, T/C [19] 105% | viability, T/C [20] 104% | viability, T/C [21] 79.2% | viability, T/C [22] 18.2% | viability, T/C (second compound 3.16 µM, first compound 0.00316 µM) 104% | viability, T/C (second compound 3.16 µM, first compound 0.01 µM) 106% | viability, T/C [25] 111% | viability, T/C [26] 110% | viability, T/C [27] 86.8% | viability, T/C [28] 19.8% | viability, T/C (second compound 10 µM, first compound 0.00316 µM) 101% | viability, T/C (second compound 10 µM, first compound 0.01 µM) 98.8% | viability, T/C [31] 99.5% | viability, T/C [32] 105% | viability, T/C [33] 82.9% | viability, T/C [34] 18.8%
596 nM: IC50 (second compound 3.16 µM)
549 nM: IC50 (second compound 1 µM)
571 nM: IC50 (second compound 10 µM)
548 nM: IC50 (second compound 0.0316 µM)
535 nM: IC50 (second compound 0.316 µM)

COc1cc(C2c3cc4c(cc3C(OC3OC5COC(C)OC5C(O)C3O)C3COC(=O)C23)OCO4)cc(OC)c1O (stereo not drawn) + Nc1ccc(C#CCN(C(=O)Cc2ncc(C(F)(F)F)cc2C(F)(F)F)c2ccc(F)cc2)nn1
785 nM: IC50 (second compound 1 µM)
active: viability, T/C [6] 8.22% | viability, T/C [12] 7.75% | viability, T/C [18] 5.73% | viability, T/C [24] 7.26% | viability, T/C [30] 5.16% | viability, T/C [36] 5.67%
775 nM: IC50 (second compound 3.16 µM)
inactive: viability, T/C [1] 98.2% | viability, T/C [2] 94.3% | viability, T/C [3] 78.4% | viability, T/C [4] 50.9% | viability, T/C [5] 14.2% | viability, T/C [7] 107% | viability, T/C [8] 102% | viability, T/C [9] 84.1% | viability, T/C [10] 49.8% | viability, T/C [11] 12.3% | viability, T/C [13] 98.5% | viability, T/C [14] 106% | viability, T/C [15] 82.7% | viability, T/C [16] 42.6% | viability, T/C [17] 15.1% | viability, T/C [19] 112% | viability, T/C [20] 94.6% | viability, T/C [21] 79.1% | viability, T/C [22] 44.3% | viability, T/C [23] 12.8% | viability, T/C [25] 107% | viability, T/C [26] 109% | viability, T/C [27] 80.3% | viability, T/C [28] 42% | viability, T/C [29] 12.3% | viability, T/C [31] 115% | viability, T/C [32] 104% | viability, T/C [33] 79.3% | viability, T/C [34] 43.5% | viability, T/C [35] 10.6%
923 nM: IC50 (second compound 0.1 µM)
771 nM: IC50 (second compound 10 µM)
934 nM: IC50 (second compound 0.0316 µM)
817 nM: IC50 (second compound 0.316 µM)

CCc1cc2c(N3CCc4c(cc(Cn5ccnc5)cc4-c4cn(C)nc4C(F)(F)F)C3=O)cc(C)nc2c(OC)n1 + Nc1ccc(C#CCN(C(=O)Cc2ncc(C(F)(F)F)cc2C(F)(F)F)c2ccc(F)cc2)nn1
inactive: viability, T/C [1] 99.6% | viability, T/C [2] 87.8% | viability, T/C [3] 73.5% | viability, T/C [4] 72.2% | viability, T/C [5] 64.4% | viability, T/C [6] 56.5% | viability, T/C [7] 99.1% | viability, T/C [8] 88.4% | viability, T/C [9] 82.6% | viability, T/C [10] 74.2% | viability, T/C [11] 63.2% | viability, T/C [12] 56.9% | viability, T/C [13] 96.2% | viability, T/C [14] 91.1% | viability, T/C [15] 78.9% | viability, T/C [16] 79.2% | viability, T/C [17] 70.8% | viability, T/C [18] 55% | viability, T/C [19] 97.7% | viability, T/C [20] 87.3% | viability, T/C [21] 81.6% | viability, T/C [22] 79% | viability, T/C [23] 63% | viability, T/C [24] 50.9% | viability, T/C [25] 101% | viability, T/C [26] 95.3% | viability, T/C [27] 90.8% | viability, T/C [28] 84.5% | viability, T/C [29] 68.3% | viability, T/C [30] 59.6% | viability, T/C [31] 100% | viability, T/C [32] 114% | viability, T/C [33] 86.3% | viability, T/C [34] 78.6% | viability, T/C [35] 80.1% | viability, T/C [36] 56.8%
> 10000 nM: IC50 (second compound 0.0316 µM) | IC50 (second compound 0.1 µM) | IC50 (second compound 0.316 µM) | IC50 (second compound 1 µM) | IC50 (second compound 3.16 µM) | IC50 (second compound 10 µM)
